Measurements from US10208015B2, “Aryl-triazolyl pyridines as pest control agents” (BAYER ANIMAL HEALTH GMBH, priority 2014, dated 2019).
Read-outs that look alike come from different tables or passages of the source.

What was measured:
[1] = logP by HPLC on reversed-phase column (C18), EEC Directive 79/831 Annex V.A8; format: physicochemical
Ctenocephalides felis [2] = experiment: Ctenocephalides felis in vitro contact test with adult cat fleas; format: in vivo; details: application rate 500 g/ha (5 μg/cm^2), after 48 h
Method: Ctenocephalides felis—In Vitro Contact Tests with Adult Cat Fleas
(§1) For the coating of the test tubes, 9 mg of active compound are first dissolved in 1 ml of acetone p.a. and then diluted to the desired concentration with acetone p.a. 250 μl of the solution are distributed homogeneously on the inner walls and the base of a 25 ml test tube by turning and rocking on an orbital shaker (rocking rotation at 30 rpm for 2 h). With 900 ppm active compound solution and internal surface 44.7 cm^2, given homogeneous distribution, an area-based dose of 5 μg/cm^2 is achieved.
After the solvent has evaporated off, the tubes are populated with 5-10 adult cat fleas (Ctenocephalides felis), sealed with a perforated plastic lid and incubated in a horizontal position at room temperature and ambient humidity. After 48 h, efficacy is determined. To this end, the test tubes are stood upright and the fleas are knocked to the base of the tube. Fleas which remain motionless at the base or move in an uncoordinated manner are considered to be dead or moribund.
100% efficacy means that all the fleas were dead or moribund. 0% efficacy means that no fleas were harmed.

Rhipicephalus sanguineus = Rhipicephalus sanguineus in vitro contact test with adult brown dog ticks; format: in vivo; details: application rate 500 g/ha (5 μg/cm^2), after 48 h
Method: Rhipicephalus sanguineus—In Vitro Contact Tests with Adult Brown Dog Ticks
as §1
After the solvent has evaporated off, the tubes are populated with 5-10 adult dog ticks (Rhipicephalus sanguineus), sealed with a perforated plastic lid and incubated in a horizontal position in the dark at room temperature and ambient humidity. After 48 h, efficacy is determined. To this end, the ticks are knocked to the floor of the tube and incubated on a hotplate at 45-50° C. for not more than 5 min. Ticks which remain motionless on the floor or move in such an uncoordinated manner that they are unable to deliberately avoid the heat by climbing upwards are considered to be dead or moribund.
An efficacy of 100% means that all the ticks were dead or moribund. 0% efficacy means that none of the ticks had been harmed.

Amblyomma hebraeum = Amblyomma hebraeum test (tick nymphs, immersion); format: in vivo; details: application rate 100 ppm, after 42 days
Description: Amblyomma hebaraeum Test • Solvent: dimethyl sulphoxide […] Tick nymphs (Amblyomma hebraeum) are placed into perforated plastic beakers and immersed in the desired concentration for one minute. The ticks are transferred on filter paper into a Petri dish and stored in a climate-controlled cabinet.

[3] = test system: Boophilus microplus Parkhurst strain, SP-resistant; experiment: Boophilus microplus dip test; format: in vivo; details: application rate 100 ppm, assessed after 7 days
Method: Boophilus microplus—Dip Test
• Test animals: cattle ticks (Boophilus microplus) Parkhurst strain, SP-resistant • Solvent: dimethyl sulphoxide
10 mg of active compound are dissolved in 0.5 ml of dimethyl sulphoxide. To produce a suitable formulation, the active compound solution is diluted with water to the concentration desired in each case.
This active compound preparation is pipetted into tubes. 8-10 engorged adult female cattle ticks (Boophilus microplus) are transferred into a further tube with holes. The tube is immersed into the active compound preparation, and all the ticks are completely wetted. After the liquid has run out, the ticks are transferred on filter discs into plastic dishes and stored in a climate-controlled room.
Efficacy is assessed after 7 days by laying of fertile eggs. Eggs which are not visibly fertile are stored in a climate-controlled cabinet until the larvae hatch after about 42 days. An efficacy of 100% means that none of the ticks has laid any fertile eggs; 0% means that all the eggs are fertile.

Boophilus microplus = Boophilus microplus injection test; format: in vivo; details: application rate 20 μg/animal, assessed after 7 days
Method: Boophilus microplus—Injection Test • Solvent: dimethyl sulphoxide […] The animals are transferred into dishes and kept in a climate-controlled room. Efficacy is assessed after 7 days by laying of fertile eggs. Eggs which are not visibly fertile are stored in a climate-controlled cabinet until the larvae hatch after about 42 days.

Ctenocephalides felis [4] = experiment: Ctenocephalides felis oral test; format: in vivo; details: application rate 100 ppm in citrated cattle blood, after 2 days
Description: Ctenocephalides felis—Oral Test • Solvent: dimethyl sulphoxide […] Dilution with citrated cattle blood gives the desired concentration. About 20 unfed adult cat fleas (Ctenocephalides felis) are placed into a chamber which is closed at the top and bottom with gauze. A metal cylinder whose bottom end is closed with parafilm is placed onto the chamber. The cylinder contains the blood/active compound preparation, which can be imbibed by the fleas through the parafilm membrane.

Lucilia cuprina = Lucilia cuprina test; format: in vivo; details: application rate 100 ppm, L1 larvae, after 2 days
Method: (§2) • Solvent: dimethyl sulphoxide
(§3) To produce a suitable preparation of active compound, 10 mg of active compound are mixed with 0.5 ml of dimethyl sulphoxide, and the concentrate is diluted with water to the desired concentration.
About 20 L1 larvae of the Australian sheep blowfly (Lucilia cuprina) are transferred into a test vessel containing minced horsemeat and the active compound preparation of the desired concentration.
After 2 days, the kill in % is determined. 100% means that all the larvae have been killed; 0% means that no larvae have been killed.

Musca domestica = Musca domestica test; format: in vivo; details: application rate 100 ppm, adult houseflies, after 2 days
Method: as §2, §3
Vessels containing a sponge treated with sugar solution and the active compound preparation of the desired concentration are populated with 10 adult houseflies (Musca domestica).
After 2 days, the kill in % is determined. 100% means that all of the flies have been killed; 0% means that none of the flies have been killed.

Myzus persicae = Myzus persicae spray test; format: in vivo; details: application rate 100 g/ha, after 6 days
Method: Myzus Persicae—Spray Test […] To produce further test concentrations, the preparation is diluted with emulsifier-containing water. Discs of Chinese cabbage leaves (Brassica pekinensis) infested by all stages of the green peach aphid (Myzus persicae) are sprayed with an active compound preparation of the desired concentration.

Phaedon cochleariae = Phaedon cochleariae spray test; format: in vivo; details: application rate 100 g/ha, after 7 days
Method: Phaedon Cochleariae—Spray Test
(§4) • Solvent: 78.0 parts by weight of acetone • 1.5 parts by weight of dimethylformamide • Emulsifier: alkylaryl polyglycol ether
(§5) To produce a suitable preparation of active compound, 1 part by weight of active compound is dissolved using the stated parts by weight of solvent and made up with water containing an emulsifier concentration of 1000 ppm until the desired concentration is attained. To produce further test concentrations, the preparation is diluted with emulsifier-containing water.
After 7 days, the efficacy in % is determined. 100% means that all the beetle larvae have been killed; 0% means that no beetle larvae have been killed.

Spodoptera frugiperda = Spodoptera frugiperda spray test; format: in vivo; details: application rate 100 g/ha, after 7 days
Method: Spodoptera Frugiperda—Spray Test
as §4, §5
Leaf discs of maize (Zea mays) are sprayed with an active compound preparation of the desired concentration and, after drying, populated with caterpillars of the armyworm (Spodopterafrugiperda).
After 7 days, the efficacy in % is determined. 100% means that all the caterpillars have been killed; 0% means that no caterpillars have been killed.

Tetranychus urticae = Tetranychus urticae spray test, OP-resistant; format: in vivo; details: application rate 100 g/ha, after 6 days
Method: Tetranychus Urticae—Spray Test, OP-Resistant
as §4
To produce further test concentrations, the preparation is diluted with emulsifier-containing water.
After 6 days, the efficacy in % is determined. 100% means that all the spider mites have been killed; 0% means that none of the spider mites have been killed.

[5] = test system: Anopheles gambiae strain RSPH (homozygot kdr); details: application rate 40 mg/m^2, exposure 30 minutes, 24 hours after contact
Method: Anopheles Test (ANPHGB Surface Treatment)
(§6) • Solvent: acetone+2000 ppm rapeseed oil methyl ester (RME)
The exposure time is 30 minutes.
(§7) 24 hours after contact with the treated surface, mortality in % is determined. 100% means that all the mosquitoes have been killed; 0% means that none of the mosquitoes have been killed.

[6] = test system: Anopheles funestus strain FUMOZ-R; details: application rate 40 mg/m^2, exposure 30 minutes, 24 hours after contact
Method: Anopheles Test (ANPHFU Surface Treatment)
as §6
The exposure time is 30 minutes.
as §7

[7] = HPLC, C18, acetonitrile (0.1% formic acid)/water (0.09% formic acid) gradient

chromatographic logP ([1]; reversed-phase C18 HPLC column, HPLC, C18, acetonitrile (0.1% formic acid)/water (0.09% formic acid) gradient, read-out: logP) | chromatographic logP ([1]; reversed-phase C18 HPLC column, HPLC-MS method a), read-out: log P (HPLC-MS)) | Structure (SMILES) | efficacy (fleas dead or moribund) (Ctenocephalides felis [2]) | efficacy (ticks dead or moribund) (Rhipicephalus sanguineus) | efficacy (kill in %) (Amblyomma hebraeum) | efficacy (laying of fertile eggs) [3] | efficacy (laying of fertile eggs) (Boophilus microplus) | efficacy (kill in %) (Ctenocephalides felis [4]) | efficacy (kill in %) (Lucilia cuprina) | efficacy (kill in %) (Musca domestica) | efficacy in % (Myzus persicae) | efficacy in % (Phaedon cochleariae) | efficacy in % (Spodoptera frugiperda) | efficacy in % (Tetranychus urticae) | logP [1, 7] | efficacy (mortality in %) [5] | efficacy (mortality in %) [6]
3.3 | 3.33 | Cc1cc(C(F)(C(F)(F)F)C(F)(F)F)cc(C)c1-n1cc(-c2cnc(C)c(C(=O)NC3CC3)c2)nn1 [Example 1, N-cyclopropyl-5-[1-[2,6-dimethyl-4-[1,2,2,2-tetrafluoro-1-(trifluoromethyl)ethyl]phenyl]triazol-4-yl]-2-methylpyridine-3-carboxamide] | 100% | 100% | 80% | 100% | 100% | 100% | 100% | 100% | 90% | 100% | 100% | 100% |  |  | 
 |  | Cc1cc(C(F)(C(F)(F)F)C(F)(F)F)cc(C)c1-n1cc(-c2cnc(Cl)c(C(=O)NC3CC3)c2)nn1 [Example 2] | 100% | 100% | 100% | 100% | 100% | 100% | 100% | 100% | 90% | 100% | 100% | 90% | 3.8 |  | 
 |  | Cc1ncc(-c2cn(-c3c(Cl)cc(C(F)(C(F)(F)F)C(F)(F)F)cc3Cl)nn2)cc1C(=O)NC1CC1 [Example 5] | 100% | 100% | 100% | 100% | 100% | 100% | 100% | 100% |  | 100% | 100% | 100% | 3.4 |  | 
 |  | O=C(NC1CC1)c1cc(-c2cn(-c3c(Cl)cc(C(F)(C(F)(F)F)C(F)(F)F)cc3C(F)(F)F)nn2)cnc1Cl [Example 16] |  |  |  | 100% | 100% | 100% | 100% | 100% | 90% | 100% | 100% | 100% | 4.0 | 90-100% | 90-100%
